According to ChEMBL document CHEMBL1201862, “PubChem BioAssay data set” (2004):
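In this assay, cells in 96-well plates receive the compound at five concentrations for 48 hours. Endpoints are linearly interpolated between the surrounding concentrations. GI50 is the concentration that inhibits growth by half.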 Calls of active or inactive are those of the source. Rule as the data show it: active = GI50 up to about 1.1 µM and inactive = higher.

Experiments:
Assay in all cases: inhibition of tumour cell growth, NCI panel, 48 h
[1] = system: UACC-62
[2] = system: SK-MEL-28
[3] = system: LOX IMVI
[4] = system: TK-10
[5] = system: DLD-1
[6] = system: UO-31
[7] = system: EKVX
[8] = system: CCRF-CEM
[9] = system: CAKI-1
[10] = system: HOP-18
[11] = system: SNB-19
[12] = system: A498
[13] = system: HOP-92
[14] = system: SF-295
[15] = system: KM12
[16] = system: OVCAR-3
[17] = system: HOP-62
[18] = system: A549
[19] = system: SN12C
[20] = system: DMS-273
[21] = system: K562
[22] = system: SK-OV-3
[23] = system: NCI-H226
[24] = system: IGROV-1
[25] = system: ACHN
[26] = system: SNB-75
[27] = system: SW-620
[28] = system: Malme-3M
[29] = system: 786-0
[30] = system: M14
[31] = system: XF498
[32] = system: LXFL 529
[33] = system: OVCAR-5
[34] = system: COLO 205
[35] = system: OVCAR-4
[36] = system: SF-539
[37] = system: SK-MEL-2
[38] = system: HL-60
[39] = system: SK-MEL-5
[40] = system: DMS-114
[41] = system: M19-MEL
[42] = system: NCI-H23
[43] = system: NCI-H522
[44] = system: OVCAR-8
[45] = system: HCC 2998
[46] = system: UACC-257
[47] = system: KM-20L2
[48] = system: U-251
[49] = system: HCT-15
[50] = system: RXF 393
[51] = system: HT-29
[52] = system: SF-268
[53] = system: SNB-78
[54] = system: NCI-H460
[55] = system: HCT-116
[56] = system: MOLT-4
[57] = system: RPMI-8226
[58] = system: SR

ON=C1CCC(c2ccccc2)CC1 (stereo not drawn)
GI50 [1]: > 100 µM (inactive)
GI50 [2]: > 100 µM (inactive)
GI50 [3]: > 100 µM (inactive)
GI50 [4]: > 100 µM (inactive)
GI50 [5]: > 100 µM (inactive)
GI50 [6]: > 100 µM (inactive)
GI50 [7]: > 100 µM (inactive)
GI50 [8]: > 100 µM (inactive)
GI50 [9]: > 100 µM (inactive)
GI50 [10]: > 100 µM (inactive)
GI50 [11]: > 100 µM (inactive)
GI50 [12]: > 100 µM (inactive)
GI50 [13]: > 100 µM (inactive)
GI50 [14]: > 100 µM (inactive)
GI50 [15]: > 100 µM (inactive)
GI50 [16]: > 100 µM (inactive)
GI50 [17]: > 100 µM (inactive)
GI50 [18]: > 100 µM (inactive)
GI50 [19]: > 100 µM (inactive)
GI50 [20]: > 100 µM (inactive)
GI50 [21]: > 100 µM (inactive)
GI50 [22]: > 100 µM (inactive)
GI50 [23]: > 100 µM (inactive)
GI50 [24]: > 100 µM (inactive)
GI50 [25]: > 100 µM (inactive)
GI50 [26]: > 100 µM (inactive)
GI50 [27]: > 100 µM (inactive)
GI50 [28]: > 100 µM (inactive)
GI50 [29]: > 100 µM (inactive)
GI50 [30]: > 100 µM (inactive)
GI50 [31]: > 100 µM (inactive)
GI50 [32]: > 100 µM (inactive)
GI50 [33]: > 100 µM (inactive)
GI50 [34]: > 100 µM (inactive)
GI50 [35]: > 100 µM (inactive)
GI50 [36]: > 100 µM (inactive)
GI50 [37]: > 100 µM (inactive)
GI50 [38]: > 100 µM (inactive)
GI50 [39]: > 100 µM (inactive)
GI50 [40]: > 100 µM (inactive)
GI50 [41]: > 100 µM (inactive)
GI50 [42]: > 100 µM (inactive)
GI50 [43]: > 100 µM (inactive)
GI50 [44]: > 100 µM (inactive)
GI50 [45]: > 100 µM (inactive)
GI50 [46]: > 100 µM (inactive)
GI50 [47]: > 100 µM (inactive)
GI50 [48]: > 100 µM (inactive)
GI50 [49]: > 100 µM
GI50 [50]: > 100 µM (inactive)
GI50 [51]: > 100 µM (inactive)
GI50 [52]: > 100 µM (inactive)
GI50 [53]: > 100 µM (inactive)
GI50 [54]: > 100 µM (inactive)
GI50 [55]: > 100 µM (inactive)

NCCCCCCNCc1cccc2ccccc12
GI50 [1]: > 100 µM (inactive)
GI50 [2]: 65.2 µM (inactive)
GI50 [3]: 41 µM (inactive)
GI50 [4]: > 100 µM (inactive)
GI50 [5]: > 100 µM (inactive)
GI50 [6]: 53.5 µM (inactive)
GI50 [7]: > 100 µM (inactive)
GI50 [8]: > 10 µM (inactive)
GI50 [9]: > 100 µM (inactive)
GI50 [10]: 24.2 µM (inactive)
GI50 [11]: > 100 µM (inactive)
GI50 [14]: > 100 µM (inactive)
GI50 [15]: 99.8 µM (inactive)
GI50 [16]: > 100 µM (inactive)
GI50 [56]: 40.8 µM (inactive)
GI50 [17]: > 100 µM (inactive)
GI50 [18]: > 100 µM (inactive)
GI50 [19]: > 100 µM (inactive)
GI50 [21]: 19.8 µM (inactive)
GI50 [22]: > 100 µM (inactive)
GI50 [23]: > 100 µM (inactive)
GI50 [24]: > 100 µM (inactive)
GI50 [25]: > 100 µM (inactive)
GI50 [26]: > 100 µM (inactive)
GI50 [27]: 85.5 µM (inactive)
GI50 [28]: 19.1 µM (inactive)
GI50 [29]: > 100 µM (inactive)
GI50 [30]: 18.4 µM (inactive)
GI50 [57]: > 100 µM (inactive)
GI50 [31]: 44.2 µM (inactive)
GI50 [32]: > 100 µM (inactive)
GI50 [33]: > 100 µM (inactive)
GI50 [34]: 29.9 µM (inactive)
GI50 [35]: > 100 µM (inactive)
GI50 [36]: 40.6 µM (inactive)
GI50 [37]: 41.3 µM (inactive)
GI50 [38]: 54.2 µM (inactive)
GI50 [39]: 90.8 µM (inactive)
GI50 [40]: > 100 µM (inactive)
GI50 [41]: > 100 µM (inactive)
GI50 [42]: > 100 µM (inactive)
GI50 [43]: 83.6 µM (inactive)
GI50 [44]: > 100 µM (inactive)
GI50 [46]: 46.3 µM (inactive)
GI50 [47]: 58.3 µM (inactive)
GI50 [48]: > 100 µM (inactive)
GI50 [49]: 74.6 µM
GI50 [50]: 57 µM (inactive)
GI50 [51]: 38.3 µM (inactive)
GI50 [53]: > 100 µM (inactive)
GI50 [58]: 45.3 µM (inactive)
GI50 [54]: > 100 µM (inactive)
GI50 [55]: 95.1 µM (inactive)
